In ChEMBL document CHEMBL1201862, “PubChem BioAssay data set” (2004):
Calls of active or inactive are those of the source.

What was measured:
[1] = biological target: T1, Voltage-gated N-type calcium channel alpha-1B subunit/Amyloid beta A4 precursor protein-binding family A member 1 (Homo sapiens, UniProt Q00975+Q02410); assay type: protein assay
[2] = biological target: T1, Voltage-gated N-type calcium channel alpha-1B subunit/Amyloid beta A4 precursor protein-binding family A member 1; assay type: protein assay; remark: listed apart in the source
Estrogen receptor = biological target: T2, Estrogen receptor (Homo sapiens, UniProt P03372);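 further: potency for inhibiting coactivator peptide recruitment to the receptor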
T2 sequence (P03372 whole entry): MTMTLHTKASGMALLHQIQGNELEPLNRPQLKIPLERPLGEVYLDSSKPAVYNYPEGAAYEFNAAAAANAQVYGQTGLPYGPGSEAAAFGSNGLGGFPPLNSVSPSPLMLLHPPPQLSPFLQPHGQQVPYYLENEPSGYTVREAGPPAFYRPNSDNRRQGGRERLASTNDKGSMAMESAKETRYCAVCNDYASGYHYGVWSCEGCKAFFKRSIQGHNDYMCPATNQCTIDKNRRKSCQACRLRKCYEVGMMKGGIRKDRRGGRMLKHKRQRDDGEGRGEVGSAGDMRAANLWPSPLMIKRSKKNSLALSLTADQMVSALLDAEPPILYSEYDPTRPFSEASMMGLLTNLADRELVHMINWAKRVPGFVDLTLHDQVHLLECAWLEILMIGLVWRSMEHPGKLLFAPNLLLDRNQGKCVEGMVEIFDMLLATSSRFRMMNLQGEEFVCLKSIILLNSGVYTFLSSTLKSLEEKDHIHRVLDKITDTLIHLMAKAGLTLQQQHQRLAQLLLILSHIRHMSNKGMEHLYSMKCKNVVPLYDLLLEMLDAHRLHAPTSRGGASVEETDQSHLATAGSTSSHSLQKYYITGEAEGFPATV

Beta-galactosidase [3] = biological target: T3, Beta-galactosidase (Escherichia coli, UniProt Q8VNN2); assay: detection-enzyme interference by beta-gal modulators – biochemical, E. coli enzyme, set 3, artefact control for CCR6 antagonist project, dose response (AID 504712); assay type: functional
T3 sequence (Q8VNN2 whole entry): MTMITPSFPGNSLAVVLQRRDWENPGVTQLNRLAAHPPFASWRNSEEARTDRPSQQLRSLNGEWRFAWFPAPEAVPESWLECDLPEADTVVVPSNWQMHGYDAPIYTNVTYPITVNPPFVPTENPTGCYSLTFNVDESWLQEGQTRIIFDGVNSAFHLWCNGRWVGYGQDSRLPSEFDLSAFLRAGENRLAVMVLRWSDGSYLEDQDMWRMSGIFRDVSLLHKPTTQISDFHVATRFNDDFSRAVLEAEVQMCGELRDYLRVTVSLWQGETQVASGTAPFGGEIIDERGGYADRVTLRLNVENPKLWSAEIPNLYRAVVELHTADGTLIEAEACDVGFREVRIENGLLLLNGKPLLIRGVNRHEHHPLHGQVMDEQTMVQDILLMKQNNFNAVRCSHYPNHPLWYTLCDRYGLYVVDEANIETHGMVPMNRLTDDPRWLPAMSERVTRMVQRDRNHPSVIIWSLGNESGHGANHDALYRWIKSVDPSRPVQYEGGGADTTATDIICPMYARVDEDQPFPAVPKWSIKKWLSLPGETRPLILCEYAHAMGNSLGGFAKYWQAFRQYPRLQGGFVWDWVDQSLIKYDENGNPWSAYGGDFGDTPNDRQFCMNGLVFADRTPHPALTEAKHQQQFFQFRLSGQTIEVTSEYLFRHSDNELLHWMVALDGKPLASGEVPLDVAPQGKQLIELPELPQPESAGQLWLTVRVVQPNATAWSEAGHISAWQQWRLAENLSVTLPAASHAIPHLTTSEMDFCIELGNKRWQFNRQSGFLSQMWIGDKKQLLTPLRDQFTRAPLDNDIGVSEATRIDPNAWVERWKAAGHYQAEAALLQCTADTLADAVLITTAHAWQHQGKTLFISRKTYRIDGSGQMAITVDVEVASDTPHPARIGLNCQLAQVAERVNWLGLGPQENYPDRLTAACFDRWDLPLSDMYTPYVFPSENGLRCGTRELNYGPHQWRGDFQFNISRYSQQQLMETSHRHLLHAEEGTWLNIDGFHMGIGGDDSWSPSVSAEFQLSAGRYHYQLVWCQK

[4] = NIH3T3 cell viability loss – ATP luminescence, mouse fibroblasts, counter-screen, dose response (AID 2010); assay type: functional, cell-based;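 further: cells exposed to compound for about 90 hours before reading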
[5] = microbe, parasite or virus in culture; assay type: functional; conditions: Mycobacterium tuberculosis
[6] = Trypanosoma cruzi growth suppression in host cells – NIH3T3 host cells, beta-gal luminescence, confirmation (AID 2044); assay type: functional, cell-based;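 further: intracellular parasites grown in NIH/3T3 mouse fibroblasts as host cells; luminescent beta-galactosidase reporter signal from transgenic T. cruzi replicating inside host cells; inhibitors lower the luminescence signal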
[7] = biological target: Disintegrin and metalloproteinase domain-containing protein 17 (Homo sapiens, UniProt P78536); assay: exosite inhibitors of ADAM17, dose response, biochemical (AID 743260)
[8] = biological target: G-protein coupled receptor 55 (Homo sapiens, UniProt Q9Y2T6); assay: selective activators of receptor GPR55 – imaging, U2OS cells, beta-arrestin-GFP redistribution, primary screen (AID 1961); assay type: functional
[9] = inhibition of ADAM10 peptide cleavage – biochemical, FRET peptide substrate, recombinant human ADAM10, selectivity assay for ADAM17 exosite inhibitor project, dose response (AID 743259);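 further: ADAM10 enzyme cleaving a FRET peptide substrate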
[10] = biological target: T4, Kappa-type opioid receptor (Homo sapiens, UniProt P41145); assay: SAR analysis of small molecule antagonists of the kappa opioid receptor via a luminescent beta-arrestin assay - Set 4. [Related pubchem assays (depositor defined):AID1777, AID1778, AID1785, AID1786, AID1966, AID2133, AID2136, AID2285]; assay type: functional
T4 sequence (P41145 whole entry): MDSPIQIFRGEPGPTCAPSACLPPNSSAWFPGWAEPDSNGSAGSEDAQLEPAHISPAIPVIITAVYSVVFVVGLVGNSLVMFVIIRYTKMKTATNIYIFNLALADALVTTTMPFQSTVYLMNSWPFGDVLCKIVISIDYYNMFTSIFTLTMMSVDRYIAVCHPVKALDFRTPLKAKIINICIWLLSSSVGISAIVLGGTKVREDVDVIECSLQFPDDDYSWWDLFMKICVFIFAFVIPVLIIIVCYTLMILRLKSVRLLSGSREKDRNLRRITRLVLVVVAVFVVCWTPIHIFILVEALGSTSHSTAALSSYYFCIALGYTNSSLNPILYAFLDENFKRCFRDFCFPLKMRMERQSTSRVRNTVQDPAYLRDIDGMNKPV

[11] = biological target: Delta-type opioid receptor (Homo sapiens, UniProt P41143); assay: SAR Analysis of Antagonists of the DOR Receptor using an Image-Based Assay - Set 3. [Related pubchem assays (depositor defined):AID1777, AID1785]; assay type: functional;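 further: U2OS cells expressing DOR1 and beta-arrestin GFP stimulated with 100 nM SNC80; imaging of GFP-tagged beta-arrestin moving into spots after receptor activation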
Mu-type opioid receptor = Mu-type opioid receptor (Homo sapiens, UniProt P35372); assay: SAR Analysis of Antagonists of the MOR Receptor using an Image-Based Assay - Set 3. [Related pubchem assays (depositor defined):AID1777, AID1785, AID1786, AID1966, AID2133, AID2136, AID2284, AID2285, AID2420]; assay type: functional
[12] = biological target: T4, Kappa-type opioid receptor; assay: SAR analysis of Antagonists of the Kappa Opioid Receptor (KOR) using an Image-Based Assay - Set 4. [Related pubchem assays (depositor defined):AID1777, AID1785]; assay type: functional
[13] = biological target: T5, Short transient receptor potential channel 4 (Mus musculus, UniProt Q9QUQ5); assay: potentiation of DAMGO-evoked TRPC4 calcium signal – cell-based, HEK293 TRPC4/mu-opioid, Fluo-4 calcium, EC20 DAMGO, dose response (AID 434941); assay type: functional
T5 sequence (Q9QUQ5 whole entry): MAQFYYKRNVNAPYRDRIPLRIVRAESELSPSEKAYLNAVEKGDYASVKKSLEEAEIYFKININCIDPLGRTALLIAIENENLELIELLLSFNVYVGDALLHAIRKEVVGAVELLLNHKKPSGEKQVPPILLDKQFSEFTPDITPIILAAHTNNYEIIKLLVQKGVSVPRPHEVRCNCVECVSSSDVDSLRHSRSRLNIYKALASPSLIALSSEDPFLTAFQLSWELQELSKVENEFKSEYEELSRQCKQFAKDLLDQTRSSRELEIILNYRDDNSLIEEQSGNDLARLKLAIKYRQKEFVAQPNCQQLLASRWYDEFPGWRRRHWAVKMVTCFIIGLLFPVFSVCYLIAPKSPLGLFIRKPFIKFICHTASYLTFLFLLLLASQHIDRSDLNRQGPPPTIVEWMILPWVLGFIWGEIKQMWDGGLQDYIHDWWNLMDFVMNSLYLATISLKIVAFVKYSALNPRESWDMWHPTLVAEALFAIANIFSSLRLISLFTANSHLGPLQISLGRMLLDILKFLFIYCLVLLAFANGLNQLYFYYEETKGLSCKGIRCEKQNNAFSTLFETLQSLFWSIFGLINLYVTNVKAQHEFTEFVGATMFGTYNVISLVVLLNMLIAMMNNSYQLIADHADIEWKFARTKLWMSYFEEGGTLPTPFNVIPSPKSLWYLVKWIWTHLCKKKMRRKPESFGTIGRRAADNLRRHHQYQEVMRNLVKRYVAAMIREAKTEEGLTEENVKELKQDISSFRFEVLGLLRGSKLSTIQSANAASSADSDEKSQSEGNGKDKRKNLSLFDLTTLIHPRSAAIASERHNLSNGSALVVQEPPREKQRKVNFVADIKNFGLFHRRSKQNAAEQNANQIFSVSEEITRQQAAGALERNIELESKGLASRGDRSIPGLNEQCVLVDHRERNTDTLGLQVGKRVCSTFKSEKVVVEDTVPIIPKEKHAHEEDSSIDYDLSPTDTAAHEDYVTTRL

[14] = biological target: T6, Dual specificity protein phosphatase 6 (Rattus norvegicus, UniProt Q64346); assay type: functional;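 further: confirmatory in vitro dose-response testing of MKP-3 inhibition; recombinant His-tagged MKP-3 made in E. coli BL21 with OMFP substrate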
T6 sequence (Q64346 whole entry): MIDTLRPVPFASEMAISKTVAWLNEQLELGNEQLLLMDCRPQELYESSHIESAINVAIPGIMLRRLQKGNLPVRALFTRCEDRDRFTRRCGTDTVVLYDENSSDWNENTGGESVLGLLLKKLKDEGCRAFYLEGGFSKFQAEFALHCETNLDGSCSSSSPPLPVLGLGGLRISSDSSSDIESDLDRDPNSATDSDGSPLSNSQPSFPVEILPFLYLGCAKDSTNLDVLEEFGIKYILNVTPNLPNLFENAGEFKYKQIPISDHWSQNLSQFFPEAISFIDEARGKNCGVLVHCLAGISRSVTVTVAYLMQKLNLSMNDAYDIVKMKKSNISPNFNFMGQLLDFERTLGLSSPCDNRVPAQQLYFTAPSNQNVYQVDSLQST

[15] = biological target: T7, Dual specificity protein phosphatase 3 (Homo sapiens, UniProt P51452); assay: SAR VHR1 Fluorescent Assay for In Vitro dose response studies. [Related pubchem assays (depositor defined):AID1654, AID1661, AID1878, AID1992, AID2004, AID2070, AID2085]; assay type: functional
T7 sequence (P51452 whole entry): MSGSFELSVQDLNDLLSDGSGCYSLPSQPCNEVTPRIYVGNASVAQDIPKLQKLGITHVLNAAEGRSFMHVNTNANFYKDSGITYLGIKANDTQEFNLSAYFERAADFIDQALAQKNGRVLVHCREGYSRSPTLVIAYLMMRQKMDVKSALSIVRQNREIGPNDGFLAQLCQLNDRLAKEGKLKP

[16] = biological target: T7, Dual specificity protein phosphatase 3; assay: SAR VHR1 absorbance Assay for In Vitro dose response studies. [Related pubchem assays (depositor defined):AID1654, AID1661, AID1878, AID1992, AID2004]
[17] = biological target: T8, Tyrosine-protein phosphatase non-receptor type 22 (Homo sapiens, UniProt Q9Y2R2); assay: SAR LYP1 Fluorescent Assay using OMFP substrate for In Vitro dose response studies - Set 3. [Related pubchem assays (depositor defined):AID1779, AID1784, AID2140, AID2686]; assay type: functional
T8 sequence (Q9Y2R2 whole entry): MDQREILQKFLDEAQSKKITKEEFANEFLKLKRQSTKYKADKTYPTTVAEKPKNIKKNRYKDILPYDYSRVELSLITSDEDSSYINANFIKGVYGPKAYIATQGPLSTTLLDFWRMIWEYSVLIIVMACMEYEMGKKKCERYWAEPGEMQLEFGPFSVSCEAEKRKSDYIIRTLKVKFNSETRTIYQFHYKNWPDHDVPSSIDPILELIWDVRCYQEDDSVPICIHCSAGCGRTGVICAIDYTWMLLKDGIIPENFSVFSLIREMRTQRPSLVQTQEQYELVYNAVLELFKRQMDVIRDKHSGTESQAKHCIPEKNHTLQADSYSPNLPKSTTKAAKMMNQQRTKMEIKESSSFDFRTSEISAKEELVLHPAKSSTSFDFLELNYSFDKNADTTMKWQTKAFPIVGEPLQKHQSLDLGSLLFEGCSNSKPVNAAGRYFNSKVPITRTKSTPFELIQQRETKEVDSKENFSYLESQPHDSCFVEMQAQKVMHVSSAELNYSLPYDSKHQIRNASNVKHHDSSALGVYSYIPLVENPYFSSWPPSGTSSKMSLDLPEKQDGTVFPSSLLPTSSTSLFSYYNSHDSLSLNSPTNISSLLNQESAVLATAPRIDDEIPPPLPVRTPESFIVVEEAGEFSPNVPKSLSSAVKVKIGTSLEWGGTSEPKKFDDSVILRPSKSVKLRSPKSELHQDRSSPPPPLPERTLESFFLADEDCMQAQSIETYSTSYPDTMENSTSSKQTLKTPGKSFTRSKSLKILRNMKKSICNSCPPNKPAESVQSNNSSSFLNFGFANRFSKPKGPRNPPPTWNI

[18] = biological target: Tyrosine-protein phosphatase non-receptor type 12 (Homo sapiens, UniProt Q05209); assay: SAR Selectivity Analysis of small molecule inhibitors of PEST using pCAP in a fluorescence assay. [Related pubchem assays (depositor defined):AID1779, AID1784, AID2135]; assay type: functional
[19] = biological target: T8, Tyrosine-protein phosphatase non-receptor type 22; assay: inhibition of lymphoid tyrosine phosphatase LYP – biochemical, pCAP fluorogenic substrate, fluorescence, set 3, SAR follow-up (AID 449727); assay type: functional
[20] = biological target: T9, Tyrosine-protein phosphatase non-receptor type 7 (Homo sapiens, UniProt P35236); assay: redox-active compounds inhibiting HePTP phosphatase – biochemical, fluorescence, mechanism study (AID 2068); assay type: functional
T9 sequence (P35236 whole entry): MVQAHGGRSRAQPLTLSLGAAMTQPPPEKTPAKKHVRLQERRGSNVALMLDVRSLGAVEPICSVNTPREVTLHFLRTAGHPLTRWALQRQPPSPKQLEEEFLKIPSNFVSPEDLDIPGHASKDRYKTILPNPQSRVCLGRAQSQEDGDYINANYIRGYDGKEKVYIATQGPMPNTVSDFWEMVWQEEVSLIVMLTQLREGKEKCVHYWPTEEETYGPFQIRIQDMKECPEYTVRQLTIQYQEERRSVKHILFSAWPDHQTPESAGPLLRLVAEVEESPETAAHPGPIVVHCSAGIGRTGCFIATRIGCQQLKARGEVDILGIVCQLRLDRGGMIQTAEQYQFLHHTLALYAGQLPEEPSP

Beta-galactosidase [21] = biological target: T3, Beta-galactosidase; assay type: functional
[22] = biological target: T4, Kappa-type opioid receptor; assay type: functional
[23] = biological target: T4, Kappa-type opioid receptor; assay type: functional; remark: listed apart in the source
[24] = biological target: Alkaline phosphatase, placental type (Homo sapiens, UniProt P05187); assay: human placental alkaline phosphatase inhibition – biochemical, luminescence, confirmation (AID 1512); assay type: functional
[25] = biological target: Glyceraldehyde-3-phosphate dehydrogenase (Homo sapiens, UniProt P04406)
Sequence of Glyceraldehyde-3-phosphate dehydrogenase (P04406 whole entry): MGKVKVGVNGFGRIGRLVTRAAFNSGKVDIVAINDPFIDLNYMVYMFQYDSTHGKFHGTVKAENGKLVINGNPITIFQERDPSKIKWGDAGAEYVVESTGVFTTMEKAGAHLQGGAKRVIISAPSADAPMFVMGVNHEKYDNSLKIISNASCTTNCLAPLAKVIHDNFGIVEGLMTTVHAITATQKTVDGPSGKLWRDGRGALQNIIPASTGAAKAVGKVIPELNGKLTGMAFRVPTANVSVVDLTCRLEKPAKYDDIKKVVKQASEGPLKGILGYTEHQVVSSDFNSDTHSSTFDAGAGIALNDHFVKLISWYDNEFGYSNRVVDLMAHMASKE

T1 sequence (Q00975 whole entry): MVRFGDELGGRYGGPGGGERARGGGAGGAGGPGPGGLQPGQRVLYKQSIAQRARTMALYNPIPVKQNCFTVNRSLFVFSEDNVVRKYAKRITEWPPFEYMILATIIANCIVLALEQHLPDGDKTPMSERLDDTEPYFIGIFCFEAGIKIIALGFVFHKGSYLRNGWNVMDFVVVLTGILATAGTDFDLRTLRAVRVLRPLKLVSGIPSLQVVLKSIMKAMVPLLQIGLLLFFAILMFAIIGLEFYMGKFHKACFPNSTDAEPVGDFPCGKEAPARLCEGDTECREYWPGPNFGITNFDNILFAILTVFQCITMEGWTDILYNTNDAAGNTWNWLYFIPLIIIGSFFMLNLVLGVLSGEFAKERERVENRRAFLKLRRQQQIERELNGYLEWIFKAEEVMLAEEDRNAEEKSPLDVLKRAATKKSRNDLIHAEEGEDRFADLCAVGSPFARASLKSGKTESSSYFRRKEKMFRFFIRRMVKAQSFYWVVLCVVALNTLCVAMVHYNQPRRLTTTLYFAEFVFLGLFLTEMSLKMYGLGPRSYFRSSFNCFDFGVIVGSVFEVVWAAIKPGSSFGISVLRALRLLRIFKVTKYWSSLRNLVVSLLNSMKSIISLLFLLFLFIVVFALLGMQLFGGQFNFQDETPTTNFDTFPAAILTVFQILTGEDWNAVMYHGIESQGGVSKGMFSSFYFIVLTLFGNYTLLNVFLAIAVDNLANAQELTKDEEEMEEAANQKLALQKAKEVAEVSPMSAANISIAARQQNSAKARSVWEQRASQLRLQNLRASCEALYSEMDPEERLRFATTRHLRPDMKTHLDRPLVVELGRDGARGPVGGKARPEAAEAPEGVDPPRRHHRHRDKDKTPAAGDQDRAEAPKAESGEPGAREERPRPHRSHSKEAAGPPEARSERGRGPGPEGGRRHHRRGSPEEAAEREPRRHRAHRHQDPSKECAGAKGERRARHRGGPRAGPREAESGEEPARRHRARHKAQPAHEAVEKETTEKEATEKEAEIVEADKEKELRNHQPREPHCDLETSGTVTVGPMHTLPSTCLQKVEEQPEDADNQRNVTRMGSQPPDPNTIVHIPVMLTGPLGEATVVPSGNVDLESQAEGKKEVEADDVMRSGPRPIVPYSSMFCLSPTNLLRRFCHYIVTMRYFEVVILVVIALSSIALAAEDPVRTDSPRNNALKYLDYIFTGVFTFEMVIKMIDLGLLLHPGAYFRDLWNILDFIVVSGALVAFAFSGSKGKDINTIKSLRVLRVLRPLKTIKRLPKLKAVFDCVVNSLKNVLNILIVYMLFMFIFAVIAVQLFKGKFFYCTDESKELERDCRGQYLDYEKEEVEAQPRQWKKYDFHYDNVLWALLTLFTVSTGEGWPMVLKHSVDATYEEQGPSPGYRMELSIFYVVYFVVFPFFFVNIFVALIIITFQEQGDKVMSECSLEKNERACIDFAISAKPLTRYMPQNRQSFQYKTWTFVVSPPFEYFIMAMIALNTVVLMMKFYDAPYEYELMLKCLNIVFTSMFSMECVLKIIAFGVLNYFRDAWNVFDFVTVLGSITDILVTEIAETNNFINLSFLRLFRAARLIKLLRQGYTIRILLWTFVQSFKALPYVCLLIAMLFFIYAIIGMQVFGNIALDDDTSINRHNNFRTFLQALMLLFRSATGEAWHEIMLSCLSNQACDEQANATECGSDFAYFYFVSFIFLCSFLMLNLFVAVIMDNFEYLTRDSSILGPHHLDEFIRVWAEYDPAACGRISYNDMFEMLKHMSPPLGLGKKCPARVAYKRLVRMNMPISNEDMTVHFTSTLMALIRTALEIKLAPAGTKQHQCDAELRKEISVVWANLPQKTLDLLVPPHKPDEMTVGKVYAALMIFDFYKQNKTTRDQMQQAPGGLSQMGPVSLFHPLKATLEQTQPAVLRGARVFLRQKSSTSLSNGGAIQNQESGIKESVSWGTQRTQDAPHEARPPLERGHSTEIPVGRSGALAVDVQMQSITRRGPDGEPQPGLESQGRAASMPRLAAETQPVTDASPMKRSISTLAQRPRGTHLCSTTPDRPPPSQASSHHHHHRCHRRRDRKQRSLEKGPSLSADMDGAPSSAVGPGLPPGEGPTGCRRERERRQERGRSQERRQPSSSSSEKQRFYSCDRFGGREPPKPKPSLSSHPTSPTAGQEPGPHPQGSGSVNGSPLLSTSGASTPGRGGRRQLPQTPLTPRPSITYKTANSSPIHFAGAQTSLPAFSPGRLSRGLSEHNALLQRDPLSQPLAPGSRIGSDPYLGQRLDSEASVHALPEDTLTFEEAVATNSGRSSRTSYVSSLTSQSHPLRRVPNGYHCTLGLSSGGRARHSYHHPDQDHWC
T1 sequence (Q02410 whole entry): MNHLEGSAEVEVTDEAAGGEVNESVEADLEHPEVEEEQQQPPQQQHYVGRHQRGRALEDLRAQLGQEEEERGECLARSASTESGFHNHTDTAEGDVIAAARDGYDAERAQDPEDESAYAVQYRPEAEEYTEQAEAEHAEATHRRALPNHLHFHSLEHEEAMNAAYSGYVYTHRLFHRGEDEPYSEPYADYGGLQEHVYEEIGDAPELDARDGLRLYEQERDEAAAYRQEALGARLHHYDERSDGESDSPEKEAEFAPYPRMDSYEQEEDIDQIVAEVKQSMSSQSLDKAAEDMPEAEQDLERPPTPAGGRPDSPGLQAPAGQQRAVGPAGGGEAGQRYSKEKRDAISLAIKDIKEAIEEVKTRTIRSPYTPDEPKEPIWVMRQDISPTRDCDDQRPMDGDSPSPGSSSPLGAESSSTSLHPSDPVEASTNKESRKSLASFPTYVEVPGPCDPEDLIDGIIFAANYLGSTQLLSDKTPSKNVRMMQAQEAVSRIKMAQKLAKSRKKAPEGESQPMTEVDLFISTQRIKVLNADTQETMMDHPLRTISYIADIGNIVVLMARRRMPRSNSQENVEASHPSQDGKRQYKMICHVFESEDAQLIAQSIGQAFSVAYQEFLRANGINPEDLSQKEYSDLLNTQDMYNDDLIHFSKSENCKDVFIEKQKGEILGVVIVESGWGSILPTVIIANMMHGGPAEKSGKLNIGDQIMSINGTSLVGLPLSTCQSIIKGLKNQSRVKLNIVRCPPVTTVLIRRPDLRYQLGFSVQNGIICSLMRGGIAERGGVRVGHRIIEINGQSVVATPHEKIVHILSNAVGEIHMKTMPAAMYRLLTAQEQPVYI

Compound: C=CCOc1ccc(CC2C(=O)N(C)C(=O)N(C)C2=O)cc1
- IC50 [1]: > 50 µM (inactive)
- IC50 [2]: 4.93 µM (active)
- IC50 (Estrogen receptor): > 50 µM (not active)

Compound: C=CCN(CC=C)C(=S)NC(=O)c1ccc(-c2ccccc2)cc1
- IC50 (Beta-galactosidase [3]): > 66.6 µM (inactive)
- EC50 [4]: 9.2 µM (active)
- CC50 [5]: > 40 µM (active)
- EC50 [6]: 1.82 µM (active)

Compound: Cc1ccc(S(=O)(=O)N(Cc2ccc(Cl)cc2)c2ccccc2C(=O)NCc2ccco2)cc1
- IC50 [7]: > 69.5 µM (inactive)
- EC50 [8]: > 32 µM (inactive)
- IC50 [9]: > 7.72 µM (active)

Compound: CC(C)N(CCNC(=O)c1ccc(CNS(=O)(=O)c2ccc(C(C)(C)C)cc2)cc1)Cc1ccccc1
- IC50 [10]: 2.66 µM (active)
- IC50 [11]: > 32 µM (inactive)
- IC50 (Mu-type opioid receptor): > 32 µM (inactive)
- IC50 [12]: 0.79 µM (active)

Compound: O=[N+]([O-])c1cc(C(F)(F)F)ccc1NC1CCN(Cc2ccccc2)C1 (configuration not stated)
- EC50 [13]: 0.67 µM (active)

Compound: Cc1cc(OCC(=O)O)ccc1S(C)(=O)=O
- IC50 [14]: > 99 µM (inactive)
- IC50 [15]: > 99 µM (inactive)
- IC50 [16]: > 100 µM (inactive)
- IC50 [17]: > 100 µM (inactive)
- IC50 [18]: > 100 µM (inactive)
- IC50 [19]: > 100 µM (inactive)
- IC50 [20]: > 100 µM (inactive)

Compound: CCCCC/C(=N/O)c1c(C)[nH]c2ccccc12
- EC50 (Beta-galactosidase [21]): > 31.5 µM (inactive)
- IC50 [22]: > 32 µM
- IC50 [23]: > 31.5 µM (inactive)

Compound: CC(C)NC(=O)c1cc(-c2cc(F)c(Cl)cc2Cl)n[nH]1
- IC50 [24]: > 100 µM (inactive)
- IC50 [25]: > 100 µM (not active)
